Measurements taken from patent US12599672B2, “KRAS proteolysis targeting chimeras” (PAQ Therapeutics Inc., priority 2023, dated 2026).

Key:
Assay type in all cases: cell-based
KRAS = target: T1, KRAS (Homo sapiens, UniProt P01116); test: KRASamp MSD assay; details: KE39 (KRAS amplified) cells, treated with test compounds for 24 hr, MSD readout of KRAS degradation
T1 construct: endogenous in cells; host or cells: KE39 (KRAS amplified) cells
Experimental: KE39 (KRAS amplified) cells were cultured in RPMI 1640 medium (Gibco, 11875093), seeded into 96 well plate and treated with test compounds for 24 hr. The cells were washed with PBS and lysed in plate for 1 hr at 4° C. with agitation in RIPA buffer (Cat No. BP-115D) supplemented with protease and phosphatase inhibitor cocktail. The lysates were loaded into MSD plate coated with KRAS capture antibody (LSBio, C175665, 1:1000) for 1 h at RT with agitation. The plate was then washed three times with TBST and incubated with KRAS detection antibody (Abcam, Ab275876. 1:2000) for 1 h at RT. After washing three times with TBST, the plate was incubated with secondary detection antibody GAR (1:500) for 1 hr at RT followed with 3×TBST washing. 2×MSD reading buffer was added into individual wells and the plate was finally read by MSD reader (MSD, SQ 120 MM). The recombinant WT KRAS protein was used for standard curve generation and protein quantification. The degradation activity was calculated using the following formula: […]
DC50 was calculated by fitting the curve using GraphPad Prism v8.0.2 (analysis 263): […]

KRAS G12D = target: T2, KRAS G12D (Homo sapiens, UniProt P01116, G12D); test: KRAS G12D HiBit assay; details: AsPc-1-KRAS (G12D)-HiBit-KI cell, compound treatment for 24 hours, absolute DC50
T2 construct: AsPc-1-KRAS (G12D)-HiBit-KI cell (Pharmaron); host or cells: AsPc-1-KRAS (G12D)-HiBit-KI cells (HiBiT knock-in at the endogenous KRAS locus)
T2 sequence (P01116 1-188 isoform P01116-2 G12D): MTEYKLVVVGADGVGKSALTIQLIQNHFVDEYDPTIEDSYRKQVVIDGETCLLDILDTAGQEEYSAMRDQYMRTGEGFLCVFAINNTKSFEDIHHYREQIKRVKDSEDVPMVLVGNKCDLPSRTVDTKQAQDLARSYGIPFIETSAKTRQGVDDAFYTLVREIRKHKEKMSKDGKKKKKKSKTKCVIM
Procedure, shortened: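 HiBiT luminescence, detected by adding lytic buffer, substrate and LgBiT protein, served as the KRAS G12D read-out. Compounds, serially diluted 3-fold over 10 points from 0.3 mM DMSO stock, were on cells for 24 h; percent inhibition normalized to cells given 0.1% DMSO only.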

KRAS G12V = target: T3, KRAS G12V (Homo sapiens, UniProt P01116, G12V); test: KRAS G12V HiBit assay; details: SW620-KRAS (G12V)-HiBit-KI cells, compound treatment for 24 hours, class symbols
T3 construct: SW620-KRAS (G12V)-HiBit-KI cell (Pharmaron); host or cells: SW620-KRAS (G12V)-HiBit-KI cells (HiBiT knock-in at the endogenous KRAS locus)
T3 sequence (P01116 1-188 isoform P01116-2 G12V): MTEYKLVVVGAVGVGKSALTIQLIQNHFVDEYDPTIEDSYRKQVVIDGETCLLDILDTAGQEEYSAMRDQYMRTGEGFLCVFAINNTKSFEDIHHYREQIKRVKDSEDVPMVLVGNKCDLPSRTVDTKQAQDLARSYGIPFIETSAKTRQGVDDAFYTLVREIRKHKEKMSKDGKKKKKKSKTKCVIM
Procedure, shortened: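 Luminescence from lytic Nano-Glo HiBiT detection with LgBiT read KRAS G12V levels after 24 h compound exposure. Dilutions were 10-point, 3-fold, from a 0.3 mM DMSO stock. Degradation activity was normalised to cells given 0.1% DMSO alone.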

[1] = numeric bounds given in place of class symbols

T1 sequence (P01116 1-188 isoform P01116-2): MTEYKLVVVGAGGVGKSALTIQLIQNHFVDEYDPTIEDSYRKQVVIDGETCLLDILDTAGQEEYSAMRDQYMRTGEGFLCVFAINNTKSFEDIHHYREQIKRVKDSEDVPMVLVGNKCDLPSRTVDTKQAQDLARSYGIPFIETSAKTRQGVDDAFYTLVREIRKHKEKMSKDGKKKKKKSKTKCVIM

Row | Structure (SMILES) | DC50 (KRAS) | DC50 (KRAS G12D; [1]) | DC50 (KRAS G12V) | DC50 (KRAS G12D; class symbols)
1 | C#Cc1c(F)ccc2cc(O)cc(-c3ncc4c(N5CCC[C@@](C)(O)C5)nc(OC[C@@]56CCCN5[C@H](COC(=O)N5CCC(C7CCN(c8ccc9c(c8)n(C)c(=O)n9C8CCC(=O)NC8=O)CC7)CC5)CC6)nc4c3F)c12 (stereo partly shown) [Compound 32] | 1 to 10 nM | > 100 nM | – | –
2 | CCc1cccc2cc(O)cc(-c3cc4nc(OC[C@@]56CCCN5[C@H](COC(=O)N5CCC7(CC5)CC(N5CCC(c8ccc9c(c8)n(C)c(=O)n9C8CCC(=O)NC8=O)CC5)C7)CC6)nc(N5CCC[C@@](C)(O)C5)c4cn3)c12 (stereo partly drawn) [Compound 487, ((3S,7aS)-7a-(((7-(8-ethyl-3-hydroxynaphthalen-1-yl)-4-((R)-3-hydroxy-3-methylpiperidin-1-yl)pyrido[4,3-d]pyrimidin-2-yl)oxy)methyl)hexahydro-1H-pyrrolizin-3-yl)methyl 2-(4-(1-(2,6-dioxopiperidin-3-yl)-3-methyl-2-oxo-2,3-dihydro-1H-benzo[d]imidazol-5-yl)piperidin-1-yl)-7-azaspiro[3.5]nonane-7-carboxylate] | – | – | < 10 nM | < 100 nM
3 | CCc1c(F)ccc2cc(O)cc(-c3ncc4c(N5CCC[C@@](C)(O)C5)nc(OC[C@@]56CCCN5C(COCCCN5CCC(c7ccc8c(c7)n(C)c(=O)n8C7CCC(=O)NC7=O)CC5)CC6)nc4c3F)c12 (stereo partly drawn) [Compound 490, 3-(5-(1-(3-(((7aS)-7a-(((7-(8-ethyl-7-fluoro-3-hydroxynaphthalen-1-yl)-8-fluoro-4-((R)-3-hydroxy-3-methylpiperidin-1-yl)pyrido[4,3-d]pyrimidin-2-yl)oxy)methyl)hexahydro-1H-pyrrolizin-3-yl)methoxy)propyl)piperidin-4-yl)-3-methyl-2-oxo-2,3-dihydro-1H-benzo[d]imidazol-1-yl)piperidine-2,6-dione] | – | > 100 nM | > 100 nM | –
4 | CCc1c(F)ccc2cc(O)cc(-c3ncc4c(N5CCC[C@@](C)(O)C5)cc(OC[C@@]56CCCN5[C@H](COC(=O)N5CCC(CN7CCC(c8ccc9c(c8)n(C)c(=O)n9C8CCC(=O)NC8=O)CC7)CC5)CC6)nc4c3F)c12 (stereo partly drawn) [Compound 492, ((3S,7aS)-7a-(((7-(8-ethyl-7-fluoro-3-hydroxynaphthalen-1-yl)-8-fluoro-4-((R)-3-hydroxy-3-methylpiperidin-1-yl)-1,6-naphthyridin-2-yl)oxy)methyl)hexahydro-1H-pyrrolizin-3-yl)methyl 4-((4-(1-(2,6-dioxopiperidin-3-yl)-3-methyl-2-oxo-2,3-dihydro-1H-benzo[d]imidazol-5-yl)piperidin-1-yl)methyl)piperidine-1-carboxylate] | – | – | > 100 nM | < 100 nM
5 | CCc1c(F)ccc2cc(O)cc(-c3ncc4c(N5CCC[C@@](C)(O)C5)nc(OC[C@@]56CCCN5[C@H](CNC(=O)c5ccc(CN7CCC(c8ccc9c(c8)n(C)c(=O)n9C8CCC(=O)NC8=O)CC7)cc5F)CC6)nc4c3F)c12 (stereo partly drawn) [Compound 494, 4-((4-(1-(2,6-dioxopiperidin-3-yl)-3-methyl-2-oxo-2,3-dihydro-1H-benzo[d]imidazol-5-yl)piperidin-1-yl)methyl)-N-(((3S,7aS)-7a-(((7-(8-ethyl-7-fluoro-3-hydroxynaphthalen-1-yl)-8-fluoro-4-((R)-3-hydroxy-3-methylpiperidin-1-yl)pyrido[4,3-d]pyrimidin-2-yl)oxy)methyl)hexahydro-1H-pyrrolizin-3-yl)methyl)-2-fluorobenzamide] | – | – | 10 to 100 nM | < 100 nM
6 | CCc1c(F)ccc2cc(O)cc(-c3ncc4c(N5CCC[C@@](C)(O)C5)nc(OC[C@@]56CCCN5[C@H](COC(=O)N5CCC(C)(CN7CCN(c8ccc9c(c8)n(C)c(=O)n9C8CCC(=O)NC8=O)CC7)CC5)CC6)nc4c3F)c12 (stereo partly drawn) [Compound 502, ((3S,7aS)-7a-(((7-(8-ethyl-7-fluoro-3-hydroxynaphthalen-1-yl)-8-fluoro-4-((R)-3-hydroxy-3-methylpiperidin-1-yl)pyrido[4,3-d]pyrimidin-2-yl)oxy)methyl)hexahydro-1H-pyrrolizin-3-yl)methyl 4-((4-(1-(2,6-dioxopiperidin-3-yl)-3-methyl-2-oxo-2,3-dihydro-1H-benzo[d]imidazol-5-yl)piperazin-1-yl)methyl)-4-methylpiperidine-1-carboxylate] | – | – | < 10 nM | < 100 nM

Other lines, results leading:

Row | DC50 (KRAS) | DC50 (KRAS G12D; [1]) | DC50 (KRAS G12V) | DC50 (KRAS G12D; class symbols) | Structure (SMILES)
7 | – | > 100 nM | > 100 nM | – | CCc1c(F)ccc2cc(O)cc(-c3ncc4c(N5CCC[C@@](C)(O)C5)nc(OC[C@@]56CCCN5[C@H](CN5CCC(OCCCc7ccc8c(c7)n(C)c(=O)n8C7CCC(=O)NC7=O)CC5)CC6)nc4c3F)c12 (stereo partly drawn) [Compound 486, 3-(5-(3-((1-(((3S,7aS)-7a-(((7-(8-ethyl-7-fluoro-3-hydroxynaphthalen-1-yl)-8-fluoro-4-((R)-3-hydroxy-3-methylpiperidin-1-yl)pyrido[4,3-d]pyrimidin-2-yl)oxy)methyl)hexahydro-1H-pyrrolizin-3-yl)methyl)piperidin-4-yl)oxy)propyl)-3-methyl-2-oxo-2,3-dihydro-1H-benzo[d]imidazol-1-yl)piperidine-2,6-dione]
8 | – | – | 10 to 100 nM | < 100 nM | CCc1c(F)ccc2cc(O)cc(-c3ncc4c(N5CCC[C@@](C)(O)C5)nc(OC[C@@]56CCCN5[C@H](COC(=O)c5ccc(N7CCC(c8ccc9c(c8)n(C)c(=O)n9C8CCC(=O)NC8=O)CC7)cc5)CC6)nc4c3F)c12 (stereo partly drawn) [Compound 495, ((3S,7aS)-7a-(((7-(8-ethyl-7-fluoro-3-hydroxynaphthalen-1-yl)-8-fluoro-4-((R)-3-hydroxy-3-methylpiperidin-1-yl)pyrido[4,3-d]pyrimidin-2-yl)oxy)methyl)hexahydro-1H-pyrrolizin-3-yl)methyl 4-(4-(1-(2,6-dioxopiperidin-3-yl)-3-methyl-2-oxo-2,3-dihydro-1H-benzo[d]imidazol-5-yl)piperidin-1-yl)benzoate]
9 | – | > 100 nM | > 100 nM | – | CCc1c(F)ccc2cc(O)cc(-c3ncc4c(N5CCC[C@@](C)(O)C5)nc(OC[C@@]56CCCN5[C@H](COC(=O)N5CCC(Oc7ccc(-c8ccc9c(c8)n(C)c(=O)n9C8CCC(=O)NC8=O)cc7)CC5)CC6)nc4c3F)c12 (stereo partly drawn) [Compound 496, ((3S,7aS)-7a-(((7-(8-ethyl-7-fluoro-3-hydroxynaphthalen-1-yl)-8-fluoro-4-((R)-3-hydroxy-3-methylpiperidin-1-yl)pyrido[4,3-d]pyrimidin-2-yl)oxy)methyl)hexahydro-1H-pyrrolizin-3-yl)methyl 4-(4-(1-(2,6-dioxopiperidin-3-yl)-3-methyl-2-oxo-2,3-dihydro-1H-benzo[d]imidazol-5-yl)phenoxy)piperidine-1-carboxylate]
10 | – | – | 10 to 100 nM | < 100 nM | CCc1c(F)ccc2cc(O)cc(-c3ncc4c(N5CCC[C@@](C)(O)C5)nc(OC[C@@]56CCCN5[C@H](COc5ccc(CCN7CCC(c8ccc9c(c8)n(C)c(=O)n9C8CCC(=O)NC8=O)CC7)cc5)CC6)nc4c3F)c12 (stereo partly drawn) [Compound 499, 3-(5-(1-(4-(((3S,7aS)-7a-(((7-(8-Ethyl-7-fluoro-3-hydroxynaphthalen-1-yl)-8-fluoro-4-((R)-3-hydroxy-3-methylpiperidin-1-yl)pyrido[4,3-d]pyrimidin-2-yl)oxy)methyl)hexahydro-1H-pyrrolizin-3-yl)methoxy)phenethyl)piperidin-4-yl)-3-methyl-2-oxo-2,3-dihydro-1H-benzo[d]imidazol-1-yl) piperidine-2,6-dione]
11 | – | – | < 10 nM | < 100 nM | CCc1c(F)ccc2cc(O)cc(-c3ncc4c(N5CCC[C@@](C)(O)C5)nc(OC[C@@]56CCCN5[C@H](CN(C)C(=O)c5ccc(CN7CCC(c8ccc9c(c8)n(C)c(=O)n9C8CCC(=O)NC8=O)CC7)cc5)CC6)nc4c3F)c12 (stereo partly drawn) [Compound 503, 4-((4-(1-(2,6-dioxopiperidin-3-yl)-3-methyl-2-oxo-2,3-dihydro-1H-benzo[d]imidazol-5-yl)piperidin-1-yl)methyl)-N-(((3S,7aS)-7a-(((7-(8-ethyl-7-fluoro-3-hydroxynaphthalen-1-yl)-8-fluoro-4-((R)-3-hydroxy-3-methylpiperidin-1-yl)pyrido[4,3-d]pyrimidin-2-yl)oxy)methyl)hexahydro-1H-pyrrolizin-3-yl)methyl)-N-methylbenzamide]
